Measurements taken from patent US9695154B2, “Heteroaryl inhibitors of sumo activating enzyme” (MILLENNIUM PHARMACEUTICALS, INC., priority 2013, dated 2017).

Biological target: T1, recombinant human SAE enzyme (Homo sapiens, UniProt Q9UBT2)
T1 sequence (Q9UBT2 1-640): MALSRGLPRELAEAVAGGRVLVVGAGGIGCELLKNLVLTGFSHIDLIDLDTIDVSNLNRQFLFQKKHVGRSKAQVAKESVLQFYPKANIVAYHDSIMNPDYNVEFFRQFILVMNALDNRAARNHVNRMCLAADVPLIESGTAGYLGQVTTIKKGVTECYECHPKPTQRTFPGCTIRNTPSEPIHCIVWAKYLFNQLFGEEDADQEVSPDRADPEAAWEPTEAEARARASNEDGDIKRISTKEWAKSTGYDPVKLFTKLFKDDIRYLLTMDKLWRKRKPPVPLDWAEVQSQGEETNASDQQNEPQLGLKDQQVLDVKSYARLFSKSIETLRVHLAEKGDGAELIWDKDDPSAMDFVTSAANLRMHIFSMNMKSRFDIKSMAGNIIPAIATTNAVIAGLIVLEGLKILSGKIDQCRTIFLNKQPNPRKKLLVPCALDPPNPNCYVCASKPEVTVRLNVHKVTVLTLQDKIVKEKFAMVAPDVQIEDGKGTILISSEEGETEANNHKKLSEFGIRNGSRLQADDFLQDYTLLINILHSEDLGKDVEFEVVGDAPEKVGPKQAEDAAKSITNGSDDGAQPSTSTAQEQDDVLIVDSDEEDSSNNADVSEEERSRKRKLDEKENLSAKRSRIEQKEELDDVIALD
T1 sequence (Q9UBE0 1-346 partner): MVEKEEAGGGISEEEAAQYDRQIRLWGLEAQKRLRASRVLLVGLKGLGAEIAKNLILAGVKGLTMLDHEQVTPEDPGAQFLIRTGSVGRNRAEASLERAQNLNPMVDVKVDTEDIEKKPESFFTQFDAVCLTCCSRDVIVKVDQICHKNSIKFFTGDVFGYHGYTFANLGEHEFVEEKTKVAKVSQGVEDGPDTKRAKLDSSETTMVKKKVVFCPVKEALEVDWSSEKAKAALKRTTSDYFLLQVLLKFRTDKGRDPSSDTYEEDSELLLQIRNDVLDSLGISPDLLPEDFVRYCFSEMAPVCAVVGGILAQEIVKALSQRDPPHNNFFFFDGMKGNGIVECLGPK
Test: SAE HTRF Enzyme Assay
Assay type: biochemical
Conditions: for IC50: class symbols A-C; for inhibition at 0.111 µM: compound concentration 0.111 μM, read-out: Percent Inhibition
How it was run: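 Recombinant human SAE (0.11 nM) transferred Sumo-Flag (0.125 μM) to Ubc9-GST (0.01 μM) with 0.5 μM ATP in HEPES pH 7.5, MgCl2, GSH, BSA; 105 min at 24° C. EDTA stop, Eu-cryptate anti-Flag and XL-APC anti-GST added, 2 h, then HTRF read. Values given as % inhibition at one concentration or IC50.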

Row | SMILES | IC50 | inhibition at 0.111 µM
1 | Cc1cc(C(=O)c2cncnc2N[C@@H]2C[C@H](COS(N)(=O)=O)[C@@H](O)C2)nn1Cc1cccc(I)c1 [Compound I-347, {(1R,2S,4R)-2-hydroxy-4-[(5-{[1-(3-iodobenzyl)-5-methyl-1H-pyrazol-3-yl]carbonyl}pyrimidin-4-yl)amino]cyclopentyl}methyl sulfamate] | < 10 nM | > 99%
2 | NS(=O)(=O)OC[C@H]1C[C@@H](Nc2ncncc2C(=O)c2ccn(Cc3ccc(F)cc3)n2)[C@H](O)[C@@H]1O [Compound I-106, {(1R,2R,3S,4R)-4-[(5-{[1-(4-fluorobenzyl)-1H-pyrazol-3-yl]carbonyl}pyrimidin-4-yl)amino]-2,3-dihydroxycyclopentyl}methyl sulfamate] | < 10 nM | > 99%
3 | NS(=O)(=O)OC[C@H]1C[C@@H](Nc2ncncc2C(=O)c2ccn(Cc3ccc(F)c(Cl)c3)c2)[C@@H](F)[C@@H]1O [Compound I-141, {(1R,2R,3R,4R)-4-[(5-{[1-(3-chloro-4-fluorobenzyl)-1H-pyrrol-3-yl]carbonyl}pyrimidin-4-yl)amino]-3-fluoro-2-hydroxycyclopentyl}methy1 sulfamate] | < 10 nM | 99%
4 | NS(=O)(=O)OC[C@H]1C[C@@H](Nc2ncnc(Cl)c2C(=O)c2ccn(Cc3cccc(Cl)c3)n2)C[C@@H]1O [Compound I-54, {(1R,2S,4R)-4-[(6-Chloro-5-{[1-(3-chlorobenzyl)-1H-pyrazol-3-yl]carbonyl}pyrimidin-4-yl)amino]-2-hydroxycyclopentyl}methyl sulfamate] | 10 to 100 nM | 63%
5 | CCc1cc(C(=O)c2cncnc2N[C@@H]2C[C@H](COS(N)(=O)=O)[C@@H](O)[C@@H]2F)cn1Cc1cccc(Br)c1 [Compound I-187, {(1R,2R,3R,4R)-4-[(5-{[1-(3-Bromobenzyl)-5-ethyl-1H-pyrrol-3-yl]carbonyl}pyrimidin-4-yl)amino]-3-fluoro-2-hydroxycyclopentyl}methyl sulfamate] | < 10 nM | 99%
6 | NS(=O)(=O)OC[C@H]1C[C@@H](Nc2ncncc2C(=O)c2ccn(C3CCc4ccccc43)n2)[C@H](O)[C@@H]1O (single isomer, unassigned) [Compound I-323, {(1R,2R,3S,4R)-4-[(5-{[1-((1R)-2,3-dihydro-1H-inden-1-yl)-1H-pyrazol-3-yl]carbonyl}pyrimidin-4-yl)amino]-2,3-dihydroxycyclopentyl}methyl sulfamate or {(1R,2R,3S,4R)-4-[(5-{[1-((1S)-2,3-dihydro-1H-inden-1-yl)-1H-pyrazol-3-yl]carbonyl}pyrimidin-4-yl)amino]-2,3-dihydroxycyclopentyl}methyl sulfamate] | 10 to 100 nM | 82%
7 | NS(=O)(=O)OC[C@H]1C[C@@H](Nc2ncncc2C(=O)c2ccn(Cc3cc(Br)ccn3)n2)[C@H](O)[C@@H]1O [Compound I-324, [(1R,2R,3S,4R)-4-{[5-({1-[(4-bromopyridin-2-yl)methyl]-1H-pyrazol-3-yl}carbonyl)pyrimidin-4-yl]amino}-2,3-dihydroxycyclopentyl]methyl sulfamate] | < 10 nM | 100%
8 | NS(=O)(=O)OC[C@H]1C[C@@H](Nc2ccncc2C(=O)c2ccn(Cc3cccc(C(F)(F)F)c3)n2)C[C@@H]1O [Compound I-262, [(1R,2S,4R)-2-hydroxy-4-{[3-({1-[3-(trifluoromethyl)benzyl]-1H-pyrazol-3-yl}carbonyl)pyridin-4-yl]amino}cyclopentyl]methyl sulfamate] | < 10 nM | 96%
9 | NS(=O)(=O)OC[C@H]1C[C@@H](Nc2ncncc2C(=O)c2ccn(Cc3ccc(Cl)c(Br)c3)n2)[C@@H](F)[C@@H]1O [Compound I-127, {(1R,2R,3R,4R)-4-[(5-{[1-(3-bromo-4-chlorobenzyl)-1H-pyrazol-3-yl]carbonyl}pyrimidin-4-yl)amino]-3-fluoro-2-hydroxycyclopentyl}methyl sulfamate] | < 10 nM | 99%
10 | NS(=O)(=O)OC[C@H]1C[C@@H](Nc2ncncc2C(=O)c2ccn(Cc3ccccc3)c2)C[C@@H]1O [Compound I-300, [(1R,2S,4R)-4-({5-[(1-Benzyl-1H-pyrrol-3-yl)carbonyl]pyrimidin-4-yl}amino)-2-hydroxycyclopentyl]methyl sulfamate] | < 10 nM | 97%
11 | NS(=O)(=O)OC[C@H]1C[C@@H](Nc2ncncc2C(=O)c2ccn(C#Cc3ccccc3)c2)C[C@@H]1O [Compound I-196, {(1R,2S,4R)-2-Hydroxy-4-[(5-{[1-(phenylethynyl)-1H-pyrrol-3-yl]carbonyl}pyrimidin-4-yl)amino]cyclopentyl}methyl sulfamate] | 100 to 1000 nM | 33%
12 | NS(=O)(=O)OC[C@H]1C[C@@H](Nc2ncncc2C(=O)c2ccn(Cc3cc(C(F)(F)F)cc(C(F)(F)F)c3)n2)[C@H](O)[C@@H]1O [Compound I-155, [(1R,2R,3S,4R)-4-{[5-({1-[3,5-bis(trifluoromethyl)benzyl]-1H-pyrazol-3-yl}carbonyl)pyrimidin-4-yl]amino}-2,3-dihydroxycyclopentyl]methyl sulfamate] | < 10 nM | 97%
13 | NS(=O)(=O)OC[C@H]1C[C@@H](Nc2ncncc2C(=O)c2ccn(Cc3ccccc3)n2)[C@@H](F)[C@@H]1O [Compound I-317, [(1R,2R,3R,4R)-4-({5-[(1-Benzyl-1H-pyrazol-3-yl)carbonyl]pyrimidin-4-yl}amino)-3-fluoro-2-hydroxycyclopentyl]methyl sulfamate] | < 10 nM | 96%
14 | NS(=O)(=O)OC[C@H]1C[C@@H](Nc2ncncc2C(=O)c2ccn(Cc3cccc(I)c3)c2)[C@@H](F)[C@@H]1O [Compound I-13, {(1R,2R,3R,4R)-3-fluoro-2-hydroxy-4-[(5-{[1-(3-iodobenzyl)-1H-pyrrol-3-yl]carbonyl}pyrimidin-4-yl)amino]cyclopentyl}methyl sulfamate] | < 10 nM | 100%
15 | NS(=O)(=O)OC[C@H]1C[C@@H](Nc2ncncc2C(=O)c2ccn(Cc3cccc(OC(F)(F)F)c3)n2)[C@H](O)[C@@H]1O [Compound I-349, [(1R,2R,3S,4R)-2,3-dihydroxy-4-{[5-({1-[3-(trifluoromethoxy)benzyl]-1H-pyrazol-3-yl}carbonyl)pyrimidin-4-yl]amino}cyclopentyl]methyl sulfamate] | < 10 nM | 100%
16 | NS(=O)(=O)OC[C@H]1C[C@@H](Nc2ncncc2C(=O)c2ccn(Cc3cc(F)ccc3F)n2)[C@H](O)[C@@H]1O [Compound I-91, {(1R,2R,3S,4R)-4-[(5-{[1-(2,5-difluorobenzyl)-1H-pyrazol-3-yl]carbonyl}pyrimidin-4-yl)amino]-2,3-dihydroxycyclopentyl}methyl sulfamate] | < 10 nM | 98%
17 | COC(C)(C)C#CCn1ccc(C(=O)c2cncnc2N[C@@H]2C[C@H](COS(N)(=O)=O)[C@@H](O)C2)n1 [Compound I-151, {(1R,2S,4R)-2-hydroxy-4-[(5-{[1-(4-methoxy-4-methylpent-2-yn-1-yl)-1H-pyrazol-3-yl]carbonyl}pyrimidin-4-yl)amino]cyclopentyl}methyl sulfamate] | 10 to 100 nM | 54%
